Reference: PubChem BioAssay (NCI)
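All cell lines were grown in 96-well plates and treated with compound for 48 hours. The concentration for full growth arrest is given as TGI.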

Key:
Assay in all cases: NCI anticancer screen, dose series, 48 h
OVCAR-4 ovarian = tested on: OVCAR-4 ovarian
SW-620 colon = tested on: SW-620 colon
NCI/ADR-RES ovarian = tested on: NCI/ADR-RES ovarian
A549 NSCLC = tested on: A549 NSCLC
MOLT-4 leukemia = tested on: MOLT-4 leukemia
SK-MEL-5 melanoma = tested on: SK-MEL-5 melanoma
T-47D breast = tested on: T-47D breast
SNB-19 CNS = tested on: SNB-19 CNS
U251 CNS = tested on: U251 CNS
HL-60(TB) leukemia = tested on: HL-60(TB) leukemia
HCT-116 colon = tested on: HCT-116 colon
RXF 393 renal = tested on: RXF 393 renal
A498 renal = tested on: A498 renal
RPMI-8226 leukemia = tested on: RPMI-8226 leukemia
BT-549 breast = tested on: BT-549 breast
NCI-H460 lung = tested on: NCI-H460 lung
IGROV1 ovarian = tested on: IGROV1 ovarian
OVCAR-5 ovarian = tested on: OVCAR-5 ovarian
SF-295 CNS = tested on: SF-295 CNS
UACC-257 melanoma = tested on: UACC-257 melanoma
OVCAR-8 ovarian = tested on: OVCAR-8 ovarian
HS 578T breast = tested on: HS 578T breast
SK-MEL-28 melanoma = tested on: SK-MEL-28 melanoma
MDA-N = tested on: MDA-N
SN12C renal = tested on: SN12C renal
NCI-H23 lung = tested on: NCI-H23 lung
SK-MEL-2 melanoma = tested on: SK-MEL-2 melanoma
K-562 leukemia = tested on: K-562 leukemia
HCT-15 colon = tested on: HCT-15 colon
786-0 renal = tested on: 786-0 renal
UACC-62 melanoma = tested on: UACC-62 melanoma
CAKI-1 renal = tested on: CAKI-1 renal
EKVX NSCLC = tested on: EKVX NSCLC
TK-10 renal = tested on: TK-10 renal
HT29 colon = tested on: HT29 colon
M14 melanoma = tested on: M14 melanoma
NCI-H226 lung = tested on: NCI-H226 lung
MCF7 breast = tested on: MCF7 breast
UO-31 renal = tested on: UO-31 renal
HOP-62 NSCLC = tested on: HOP-62 NSCLC
MDA-MB-231 breast = tested on: MDA-MB-231 breast
LOX IMVI melanoma = tested on: LOX IMVI melanoma
SF-268 CNS = tested on: SF-268 CNS
PC-3 prostate = tested on: PC-3 prostate
MDA-MB-435 = tested on: MDA-MB-435
NCI-H522 lung = tested on: NCI-H522 lung
COLO 205 colon = tested on: COLO 205 colon
DU-145 prostate = tested on: DU-145 prostate
CCRF-CEM leukemia = tested on: CCRF-CEM leukemia
ACHN renal = tested on: ACHN renal
MALME-3M melanoma = tested on: MALME-3M melanoma
KM12 colon = tested on: KM12 colon
OVCAR-3 ovarian = tested on: OVCAR-3 ovarian

Measured: TGI

Cc1ccc2c(=O)c(-c3nnc(NC4CCCCC4)s3)c[nH]c2n1
> 100 µM: all assays above
